Measurements published in patent US20120308567A1, “USE OF TYROSINE KINASE INHIBITORS FOR TREATMENT OF PROLACTINOMA” (CEDARS-SINAI MEDICAL CENTER, priority 2010, published 2012).

Key:
human prolactinoma cells = assay: Realtime PCR of PRL in primary human prolactinoma cell cultures; assay type: cell-based; details: Tumor B; 0.1-5 μM, 24 hr, in the absence of added EGF
Description: A, B, D, and E. After trans-sphenoidal surgery of human prolactinomas, tumor cells were cultured. […] PRL levels in culture media were measured using RIA (B). H&E and PRL staining of tumor and confocal immunocytochemistry of EGFR and HER2 (Tumor A) (C), or for Tumor B (F). Magnification of these figures was 100×. […] PRL levels in culture media were measured using RIA (E). Prolactinoma cells (Tumor B) were treated with U0126 (0.1-5 μM) for 24 hr, and Realtime PCR of PRL performed (G).
Total RNA was extracted with Trizol reagent (Invitrogen) according to instructions of the manufacturer. The amount and the integrity of RNA were assessed by measurement of absorbance at 260 and 280 nm. Total RNA was reverse-transcribed into first-strand cDNA using iScript cDNA synthesis kit (Bio-Rad Laboratories, Inc.) according to the manufacturer. Quantitative PCR reactions were carried out in the iQ5 Multicolor Real-time PCR Detection System (Bio-Rad Laboratories, Inc.) as described (8). Certified RT^2 primer assays for rat GH, PRL and human PRL were purchased from SuperArray. Primer sequences (Invitrogen) were 5′-[…]-3′ (18S rRNA forward (F)), 5′-[…]-3′ (18S rRNA reverse (R)), 5′-[…]-3′ (human (3-actin F), 5′-[…]-3′ (human (3-actin R), 5′-[…]-3′ (human GAPDH F), 5′-[…]-3′ (human GAPDH R).
Human prolactinoma tissues were obtained at the time of surgery (Pituitary Center, Cedars-Sinai Medical Center) and transferred in 0.3% BSA containing DMEM according to an IRB-approved protocol. After washing with medium, tumor tissues were chopped with a sterile scalpel into approximately 1-2 mm pieces. Tissues were rinsed and digested with DMEM containing 0.3% BSA, 0.35% collagenase, and 0.15% hyaluronidase at 37° C. for 30 min The mixture was centrifuged at 1,500 rpm for 5 min at 4° C., and the cell pellet resuspended in an appropriate volume of culture medium containing 10% FBS and antibiotics in 48 well plates. After 24 hr incubation with serum depleted starvation medium (DMEM with 0.3% BSA), treatment agents were added with fresh serum-depleted medium (0.3% BSA), and medium collected for RIA. RNA was extracted after 24 hr treatment. Medium was also collected at baseline. To normalize for cell number effect, the PRL value of treated medium was divided by that of pre-treatment starvation medium to obtain a treated value for each well (n=4).

[1] = system: GH3 cells stably expressing HER2CA; assay: Realtime PCR of PRL and GH mRNA in GH3 stable transfectants; assay type: cell-based, rat; details: each respective transfectant (pcDNA3, HER2CA); 5 nM EGF or 6 nM HRG
Description: A. […] C. GH and PRL secretion in the culture medium determined by RIA. Hormone secretion levels were normalized for cell numbers, Values are mean±SEM. *p<0.05, **p<0.01. […] GH3 rat lacto-somatotroph tumor cells secreting PRL and GH were purchased from the American Type Culture Collection. HER2CA cells were generated by transfection with […]) purchased from Addgene (Addgene plasmid 16259). Stable colonies were selected in the presence of 500 μg/ml G418 (Invitrogen). A vector control cell line pcDNA3 was simultaneously established by transfecting pcDNA3 that lacked inserted cDNA. […] After synchronization by serum starvation (medium containing 0.2% bovine serum albumin for 24 h), cells with treatment agents was grown in fresh serum-depleted medium (0.2% bovine serum albumin), and samples collected at the indicated times. Total RNA was extracted with Trizol reagent (Invitrogen) according to instructions of the manufacturer. The amount and the integrity of RNA were assessed by measurement of absorbance at 260 and 280 nm. Total RNA was reverse-transcribed into first-strand cDNA using iScript cDNA synthesis kit (Bio-Rad Laboratories, Inc.) according to the manufacturer. Quantitative PCR reactions were carried out in the iQ5 Multicolor Real-time PCR Detection System (Bio-Rad Laboratories, Inc.) as described (8). […] Primer sequences (Invitrogen) were [NT] rRNA forward ([…] rRNA reverse ([NT] (human (3-actin [NT] (human (3-actin […]).

[2] = system: GH3 cells stably expressing HER2CA; assay: Soft agarose colony-forming assay, HER2CA transfectants; assay type: cell-based, rat; details: HER2CA transfectants, 10 d after seeding
Description: B. GH3 cells stably expressing HER2CA or pcDNA3 were plated (4,000 per well) in 96 well plates for the indicated times, and WST assay performed. C. […] Values are mean±SEM. *p<0.05, ** p<0.01, ^‡p<0.05 vs pcDNA3 control, ^†p<0.05 vs HER2CA control, ^‡‡p<0.05 vs pcDNA3 control, ^††p<0.05 vs HER2CA control.
Base layers consisting of growth medium containing 0.6% low-melting point agarose (Invitrogen) were poured onto 6-well plates and allowed to solidify. Cells (8×10^3 per well) were plated in triplicate in top layers consisting of growth medium containing 0.3% agarose. Seven to ten days later, cells were stained with 0.2% iodonitrotetrazolium chloride (Invitrogen), and colonies composed of 50 cells were counted manually in 5 randomly selected fields.

[3] = system: GH3 cells stably expressing HER2CA; assay: RIA of PRL and GH secretion in culture medium of GH3 stable transfectants; assay type: cell-based, rat; details: each respective transfectant (pcDNA3, HER2CA); 5 nM EGF or 6 nM HRG
Description: μM) for the indicated times, and Realtime PCR analysis performed. C. GH and PRL secretion in the culture medium determined by RIA. Hormone secretion levels were normalized for cell numbers, Values are mean±SEM. *p<0.05, **p<0.01.
GH3 rat lacto-somatotroph tumor cells secreting PRL and GH were purchased from the American Type Culture Collection. HER2CA cells were generated by transfection with pcDNA3-HER2CA (V654E) purchased from Addgene (Addgene plasmid 16259). Stable colonies were selected in the presence of 500 μg/ml G418 (Invitrogen). A vector control cell line pcDNA3 was simultaneously established by transfecting pcDNA3 that lacked inserted cDNA. After selection and propagation of stable transfectants, cells were cultured in DMEM/F12 medium containing 15% horse serum, 2.5% FBS, penicillin/streptomycin, and 500 μg/m G418. After synchronization by serum starvation (medium containing 0.2% bovine serum albumin for ˜24 h), cells with treatment agents was grown in fresh serum-depleted medium (0.2% bovine serum albumin), and samples collected at the indicated times.
RIAs for rat GH and PRL were performed in duplicate, using reagents provided by the National Hormone and Pituitary Program, National Institute of Diabetes and Digestive and Kidney Diseases (Harbor-UCLA Medical Center, Torrance, Calif., USA). Iodination of GH and PRL (5 μg) with iodine-125 (500 μCi) (PerkinElmer life & Analytical Sciences, Boston, Mass., USA) mixed with 0.1 mg Iodo-Gen (Pierce, Rockford, Ill.) was performed using 10-ml columns prepared by G-75 Sephadex (Sigma Chemical Co.). Low interspecies cross-reactivity of the GH and PRL assays were previously shown (8).

Molecule: N#CC(=C(/N)Sc1ccccc1N)/C(C#N)=C(\N)Sc1ccccc1N [U0126]
- suppression of human PRL expression (human prolactinoma cells): ~55%

Molecule: EGF: epidermal growth factor, ErbB family receptor ligand, from Sigma (NSDSECPLSHDGYCLHDGVCMYIEALDKYACNCVVGYIGERCQYRDLKWWELR; Epidermal growth factor; UniProt P01133 971-1023, looked up)
- induction of PRL expression [1]: approximately 2 fold
- enhancement of colony formation in soft agar [2]: ~8 fold
- induction of PRL secretion [3]: approximately 2 fold
